Assay results published in patent US20230085307A1, “PYRIDAZINONE COMPOUND AND HERBICIDE” (NISSAN CHEMICAL CORPORATION, priority 2019, published 2023).

Tests used:
[1] = system: barnyard grass; experiment: Test Example 3: herbicidal effect by foliage application, Wagner pot (Table 18, symbol H); format: in vivo, barnyard grass (Echinochloa crus-galli)
How it was run: (§1)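 Plants were sown in alluvial soil held under 0.1–0.5 cm standing water and grown 14 days in a greenhouse at 25–30 °C. An emulsifiable formulation, water-diluted to the set dose, was then sprayed onto the foliage, and effects were scored three weeks later using previously defined criteria.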

[2] = system: Chinese sprangletop; experiment: Test Example 3: herbicidal effect by foliage application, Wagner pot (Table 18, symbol D); format: in vivo, chinese sprangletop (Leptochloa chinensis)
How it was run: as §1

[3] = system: rice flat sedge; experiment: Test Example 3: herbicidal effect by foliage application, Wagner pot (Table 18, symbol E); format: in vivo, rice flat sedge (Cyperus iria)
How it was run: as §1

[4] = system: southern crabgrass; experiment: Test Example 4: herbicidal effect by soil treatment (Table 19, symbol F); format: in vivo, southern crabgrass (Digitaria ciliaris); conditions: amount of applied herbicide 320 g/ha
How it was run: (§2)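 Scoring uses the grading scale of an earlier test, three weeks post-application. Treatment consists of spraying a diluted emulsion formulation across the surface of sterilized diluvial soil in which seeds are buried near 1.5 cm deep; boxes are kept in a greenhouse between 25° C. and 30° C.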

[5] = system: green foxtail; experiment: Test Example 4: herbicidal effect by soil treatment (Table 19, symbol G); format: in vivo, green foxtail (Setaria viridis); conditions: amount of applied herbicide 320 g/ha
How it was run: as §2

[6] = system: barnyard grass; experiment: Test Example 4: herbicidal effect by soil treatment (Table 19, symbol H); format: in vivo, barnyard grass (Echinochloa crus-galli); conditions: amount of applied herbicide 320 g/ha
How it was run: as §2

[7] = system: wild oat; experiment: Test Example 4: herbicidal effect by soil treatment (Table 19, symbol I); format: in vivo, wild oat (Avena fatua); conditions: amount of applied herbicide 320 g/ha
How it was run: as §2

[8] = system: blackgrass; experiment: Test Example 4: herbicidal effect by soil treatment (Table 19, symbol J); format: in vivo, blackgrass (Alopecurus myosuroides); conditions: amount of applied herbicide 320 g/ha
How it was run: as §2

[9] = system: Italian ryegrass; experiment: Test Example 4: herbicidal effect by soil treatment (Table 19, symbol K); format: in vivo, Italian ryegrass (Lolium multiflorum); conditions: amount of applied herbicide 320 g/ha
How it was run: as §2

[10] = system: windgrass; experiment: Test Example 4: herbicidal effect by soil treatment (Table 19, symbol L); format: in vivo, windgrass (Apera spica-venti); conditions: amount of applied herbicide 320 g/ha
How it was run: as §2

[11] = system: velvetleaf; experiment: Test Example 4: herbicidal effect by soil treatment (Table 19, symbol M); format: in vivo, velvetleaf (Abutilon theophrasti); conditions: amount of applied herbicide 320 g/ha
How it was run: as §2

[12] = system: redroot pigweed; experiment: Test Example 4: herbicidal effect by soil treatment (Table 19, symbol N); format: in vivo, redroot pigweed (Amaranthus retroflexus); conditions: amount of applied herbicide 320 g/ha
How it was run: as §2

[13] = system: lambsquarters; experiment: Test Example 4: herbicidal effect by soil treatment (Table 19, symbol O); format: in vivo, lambsquarters (Chenopodium album); conditions: amount of applied herbicide 320 g/ha
How it was run: as §2

[14] = system: false cleavers; experiment: Test Example 4: herbicidal effect by soil treatment (Table 19, symbol Q); format: in vivo, false cleavers (Galium spurium); conditions: amount of applied herbicide 320 g/ha
Text: [Test Example 4] Herbicidal Effect Test by Soil Treatment
Sterilized diluvial soil was placed in a plastic box having a length of 21 cm, a width of 13 cm, and a depth of 7 cm. The seeds of each of southern crabgrass, green foxtail, barnyard grass, wild oat, blackgrass, Italian ryegrass, windgrass, velvetleaf, redroot pigweed, lambsquarters, chickweed, false cleavers, persian speedwell, corn, soybean, rice, wheat, beet, and rapeseed were sowed in a spot-like manner and covered with the soil having a thickness of about 1.5 cm. Subsequently, the emulsion agent of the compound of the present invention prepared according to Formulation Example 2 was diluted with water so as to achieve a predetermined herbicide amount, and the diluted emulsion agent was uniformly applied to the surface of the soil with a small-sized spray. The plastic box was placed in a greenhouse at 25° C. to 30° C. for growth of the plants. Three weeks after the herbicide application, the effect of the herbicide on each plant was evaluated according to the criteria of Test Example 1.

[15] = system: southern crabgrass; experiment: Test Example 5: herbicidal effect by foliage application, plastic box (Table 20, symbol F); format: in vivo, southern crabgrass (Digitaria ciliaris); conditions: foliage application, 320 g/ha, three weeks after application
How it was run: (§3)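 Post-emergence foliar test in sterilized diluvial soil. Compound applied as water-diluted emulsion at a predetermined rate to 14-day-old plants; evaluation at three weeks.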

[16] = system: green foxtail; experiment: Test Example 5: herbicidal effect by foliage application, plastic box (Table 20, symbol G); format: in vivo, green foxtail (Setaria viridis); conditions: foliage application, 320 g/ha, three weeks after application
How it was run: as §3

[17] = system: barnyard grass; experiment: Test Example 5: herbicidal effect by foliage application, plastic box (Table 20, symbol H); format: in vivo, barnyard grass (Echinochloa crus-galli); conditions: foliage application, 320 g/ha, three weeks after application
How it was run: as §3

[18] = system: wild oat; experiment: Test Example 5: herbicidal effect by foliage application, plastic box (Table 20, symbol I); format: in vivo, wild oat (Avena fatua); conditions: foliage application, 320 g/ha, three weeks after application
How it was run: as §3

[19] = system: blackgrass; experiment: Test Example 5: herbicidal effect by foliage application, plastic box (Table 20, symbol J); format: in vivo, blackgrass (Alopecurus myosuroides); conditions: foliage application, 320 g/ha, three weeks after application
How it was run: as §3

[20] = system: Italian ryegrass; experiment: Test Example 5: herbicidal effect by foliage application, plastic box (Table 20, symbol K); format: in vivo, Italian ryegrass (Lolium multiflorum); conditions: foliage application, 320 g/ha, three weeks after application
How it was run: as §3

[21] = system: windgrass; experiment: Test Example 5: herbicidal effect by foliage application, plastic box (Table 20, symbol L); format: in vivo, windgrass (Apera spica-venti); conditions: foliage application, 320 g/ha, three weeks after application
How it was run: as §3

[22] = system: velvetleaf; experiment: Test Example 5: herbicidal effect by foliage application, plastic box (Table 20, symbol M); format: in vivo, velvetleaf (Abutilon theophrasti); conditions: foliage application, 320 g/ha, three weeks after application
How it was run: as §3

[23] = system: redroot pigweed; experiment: Test Example 5: herbicidal effect by foliage application, plastic box (Table 20, symbol N); format: in vivo, redroot pigweed (Amaranthus retroflexus); conditions: foliage application, 320 g/ha, three weeks after application
How it was run: as §3

[24] = system: lambsquarters; experiment: Test Example 5: herbicidal effect by foliage application, plastic box (Table 20, symbol O); format: in vivo, lambsquarters (Chenopodium album); conditions: foliage application, 320 g/ha, three weeks after application
How it was run: as §3

[25] = system: chickweed; experiment: Test Example 5: herbicidal effect by foliage application, plastic box (Table 20, symbol P); format: in vivo, common chickweed (Stellaria media); conditions: foliage application, 320 g/ha, three weeks after application
How it was run: as §3

[26] = system: persian speedwell; experiment: Test Example 5: herbicidal effect by foliage application, plastic box (Table 20, symbol R); format: in vivo, Persian speedwell (Veronica persica); conditions: foliage application, 320 g/ha, three weeks after application
How it was run: as §3

[27] = amount of applied herbicide 320 g/ha

## Cn1ncc(O)c(-c2c(-c3ccc(F)cc3)sc3ccccc23)c1=O [1-001]
[1]; 320 g/ha
  herbicidal effect on H (barnyard grass), rating 0-5: 3 (Herbicidal rate of 40% or more and less than 70%)
[2]; 320 g/ha
  herbicidal effect on D (Chinese sprangletop), rating 0-5: 0 (Herbicidal rate of 5% or less (almost no effect))
[3]; 320 g/ha
  herbicidal effect on E (rice flat sedge), rating 0-5: 5 (Herbicidal rate of 90% or more (almost completely withered))
[4]
  herbicidal effect rating, F: southern crabgrass: 0 (Herbicidal rate of 5% or less (almost no effect))
[5]
  herbicidal effect rating, G: green foxtail: 0 (Herbicidal rate of 5% or less (almost no effect))
[6]
  herbicidal effect rating, H: barnyard grass: 0 (Herbicidal rate of 5% or less (almost no effect))
[7]
  herbicidal effect rating, I: wild oat: 0 (Herbicidal rate of 5% or less (almost no effect))
[8]
  herbicidal effect rating, J: blackgrass: 0 (Herbicidal rate of 5% or less (almost no effect))
[9]
  herbicidal effect rating, K: Italian ryegrass: 0 (Herbicidal rate of 5% or less (almost no effect))
[10]
  herbicidal effect rating, L: windgrass: 0 (Herbicidal rate of 5% or less (almost no effect))
[11]
  herbicidal effect rating, M: velvetleaf: 0 (Herbicidal rate of 5% or less (almost no effect))
[12]
  herbicidal effect rating, N: redroot pigweed: 4 (Herbicidal rate of 70% or more and less than 90%)
[13]
  herbicidal effect rating, O: lambsquarters: 0 (Herbicidal rate of 5% or less (almost no effect))
[14]
  herbicidal effect rating, Q: false cleavers: 0 (Herbicidal rate of 5% or less (almost no effect))
[15]
  herbicidal effect grade, F: southern crabgrass: 0 (Herbicidal rate of 5% or less (almost no effect))
[16]
  herbicidal effect grade, G: green foxtail: 0 (Herbicidal rate of 5% or less (almost no effect))
[17]
  herbicidal effect grade, H: barnyard grass: 0 (Herbicidal rate of 5% or less (almost no effect))
[18]
  herbicidal effect grade, I: wild oat: 0 (Herbicidal rate of 5% or less (almost no effect))
[19]
  herbicidal effect grade, J: blackgrass: 0 (Herbicidal rate of 5% or less (almost no effect))
[20]
  herbicidal effect grade, K: Italian ryegrass: 0 (Herbicidal rate of 5% or less (almost no effect))
[21]
  herbicidal effect grade, L: windgrass: 0 (Herbicidal rate of 5% or less (almost no effect))
[22]
  herbicidal effect grade, M: velvetleaf: 4 (Herbicidal rate of 70% or more and less than 90%)
[23]
  herbicidal effect grade, N: redroot pigweed: 1 (Herbicidal rate of 5% or more and less than 20%)
[24]
  herbicidal effect grade, O: lambsquarters: 2 (Herbicidal rate of 20% or more and less than 40%)
[25]
  herbicidal effect grade, P: chickweed: 5 (Herbicidal rate of 90% or more (almost completely withered))
[26]
  herbicidal effect grade, R: persian speedwell: 3 (Herbicidal rate of 40% or more and less than 70%)

## CSCCSc1ccc(-c2sc3ccc(F)cc3c2-c2c(O)c(C)nn(C)c2=O)cc1 [2-421]
[1]; [27]
  herbicidal effect on H: barnyard grass: 5 (Herbicidal rate of 90% or more (almost completely withered))
[2]; [27]
  herbicidal effect on D: Chinese sprangletop: 2 (Herbicidal rate of 20% or more and less than 40%)
[3]; [27]
  herbicidal effect on E: rice flat sedge: 5 (Herbicidal rate of 90% or more (almost completely withered))
[4]
  herbicidal effect, F: southern crabgrass: 2 (Herbicidal rate of 20% or more and less than 40%)
[5]
  herbicidal effect, G: green foxtail: 3 (Herbicidal rate of 40% or more and less than 70%)
[6]
  herbicidal effect, H: barnyard grass: 1 (Herbicidal rate of 5% or more and less than 20%)
[7]
  herbicidal effect, I: wild oat: 0 (Herbicidal rate of 5% or less (almost no effect))
[8]
  herbicidal effect, J: blackgrass: 0 (Herbicidal rate of 5% or less (almost no effect))
[9]
  herbicidal effect, K: Italian ryegrass: 0 (Herbicidal rate of 5% or less (almost no effect))
[10]
  herbicidal effect, L: windgrass: 0 (Herbicidal rate of 5% or less (almost no effect))
[11]
  herbicidal effect, M: velvetleaf: 2 (Herbicidal rate of 20% or more and less than 40%)
[12]
  herbicidal effect, N: redroot pigweed: 5 (Herbicidal rate of 90% or more (almost completely withered))
[13]
  herbicidal effect, O: lambsquarters: 1 (Herbicidal rate of 5% or more and less than 20%)
[14]
  herbicidal effect, Q: false cleavers: 0 (Herbicidal rate of 5% or less (almost no effect))
[15]
  F: southern crabgrass, herbicidal effect grade: 5 (Herbicidal rate of 90% or more (almost completely withered))
[16]
  G: green foxtail, herbicidal effect grade: 5 (Herbicidal rate of 90% or more (almost completely withered))
[17]
  H: barnyard grass, herbicidal effect grade: 5 (Herbicidal rate of 90% or more (almost completely withered))
[18]
  I: wild oat, herbicidal effect grade: 5 (Herbicidal rate of 90% or more (almost completely withered))
[19]
  J: blackgrass, herbicidal effect grade: 4 (Herbicidal rate of 70% or more and less than 90%)
[20]
  K: Italian ryegrass, herbicidal effect grade: 3 (Herbicidal rate of 40% or more and less than 70%)
[21]
  L: windgrass, herbicidal effect grade: 5 (Herbicidal rate of 90% or more (almost completely withered))
[22]
  M: velvetleaf, herbicidal effect grade: 3 (Herbicidal rate of 40% or more and less than 70%)
[23]
  N: redroot pigweed, herbicidal effect grade: 5 (Herbicidal rate of 90% or more (almost completely withered))
[24]
  O: lambsquarters, herbicidal effect grade: 4 (Herbicidal rate of 70% or more and less than 90%)
[25]
  P: chickweed, herbicidal effect grade: 5 (Herbicidal rate of 90% or more (almost completely withered))
[26]
  R: persian speedwell, herbicidal effect grade: 5 (Herbicidal rate of 90% or more (almost completely withered))
